Several values for one entry are separate records, joined by “and”; a condition that tells them apart may be missing. Equal values may be shown once.
How the values were obtained:
[1] = Chronic reproduction toxicity test (OECD 211) with passive dosing; format: in vivo, Daphnia magna; conditions: Daphnia magna, in vivo, other: waterborne exposure by passive dosing from PDMS disks, 21-day test, read-out: % offspring mortality of total offspring
Description: (§1) Chronic toxicity tests with D. magna were performed according to the OECD guideline 211^2 using the passive dosing method. Two days before the tests, the exposure solution was predosed by shaking 10 PDMS disks loaded with the test substance in 1 L of medium for 48 h. Each test vessel (250 mL) was first flushed with the dosed solution to equilibrate the vessel walls, then filled with 100 mL of test solution, one PDMS disk, and one juvenile D. magna (<24 h old). The tests were conducted in loosely closed bottles to allow for adequate gas exchange and limit evaporation. The exposure medium was changed three times per week, and the animals were fed D. subspicatus daily (0.2 mg C/Daphnia/day). The number of offspring per adult and behavioral or physiological effects (e.g., size, movement, unhatched eggs) were recorded daily (except weekends). Dissolved oxygen, pH and temperature were also measured each week.
(§2) Tests were performed under static conditions (20 °C, 16:8 h light/dark cycle, 1 klux). Each compound was tested in 10 replicates for controls and limit tests (a single high concentration exposure to screen for significant toxic effects) and with 6 or 10 replicates for concentration–response tests. Reuse of silicone disks was included in some experiments (Table S3). Reproductive inhibition was assessed by counting offspring over 21 days. The number of offspring per mother in treatment groups was compared to controls, and the percent inhibition per replicate was used to generate concentration–response curves. A minimum of five concentrations per compound were tested to determine EC10, EC20, and EC50 values. For each test, three sets of polymers were rotated between loading, dosing, and exposure stages (Figure S2). Initial (before animal and food addition) and final (after 2–3 days of exposure, just before the medium change) water concentrations (CW) were monitored, with the latter collected after centrifugation to remove biomass (e.g., algae, carapaces, or feces).
(§3) All data are presented as average ± standard deviation. Student’s t test was used to analyze significance (p-value >0.05 considered insignificant). Concentration–response curve parameters (effective concentrations and confidence limits) and plots were generated using GraphPad Prism software (V6.01, GraphPad Software, La Jolla, CA, USA). The exposure concentrations were log10 transformed before fitting. Then a four parameters logistic model with variable slope was used to obtain EC10, EC20 and EC50 (see section S5 in SI file for details). Effective chemical activities (EA50) for chronic toxicity were calculated as follows: [drawing 1] 1 […]
(§4) S5. Concentration-response curve (CRC) fitting procedure
(§5) GraphPad Prism version 9.5.1 was used to fit CRC and obtain EC10, EC20, EC50 values and their confidence intervals. The exposure concentrations were log10 transformed before fitting. Then a four parameters logistic model with variable slope was used that describes the response as a function of following four parameters: minimum response (the Bottom), maximum response (the Top), the concentration required to cause a response half-way between the minimum and maximum (the EC50) and the slope of the curve […]
(§6) concentration. The Top was constrained to 100, the Bottom was constrained to 0, the HillSlope was not […]
(§7) !"# %& = !"# %&* − , × !"# 3 * 4
(§8) (, + ,((!"# %&'(<=)×-.!!/!"01)
(§9) Figure S7 Concentration-response curves of four NSO-PAHs based on reproductive inhibition during 21-day chronic toxicity tests with D. magna.
(§10) (1 picture or pasted object on this page, not shown here)

Daphnia magna = assay: as above; format: in vivo; conditions: for EC10: 21-day reproduction inhibition; for % inhibition, avr.: average of vessels; for % inhibition (of reproduction, per vessel): relative to controls; for wet weight of parent daphnids, change relative to control: end of 21-d exposure
Description: as §1, §2, §3, §4, §5, §6, §7, §8, §9, §10

[2] = Test 5-BCRB, avr. medium concentration 68.16 µg/L, 21 days
[3] = Test 5-BCRB, avr. medium concentration 68.16 µg/L, 21 days, one value per vessel

Structure (SMILES): c1ccc2c(c1)ccc1[nH]c3ccccc3c12 [BCRB, 7H-benzo[c]carbazole]
- mortality at 21 days, 4.1 µg/L ([1]; 4.1 µg/L (Fig. S8)): 3.3%
- mortality at 21 days, 9.8 µg/L ([1]; 9.8 µg/L (Fig. S8)): 4%
- mortality at 21 days, 21.8 µg/L ([1]; 21.8 µg/L (Fig. S8)): 2.9%
- mortality at 21 days, 44.6 µg/L ([1]; 44.6 µg/L (Fig. S8)): 5.6%
- mortality at 21 days, 68.2 µg/L ([1]; 68.2 µg/L (Fig. S8)): 32.4%
- EC10 (Daphnia magna; 97.5-2.5% confidence interval in brackets): 15.0 (8.6-24.3) μg L^-1
- EC10 (Daphnia magna; confidence interval in brackets): 69.2 (39.7-111.8) nmol L^-1
- growth of parent D. magna (wet weight) (Daphnia magna; 21-day test, p-value <0.05): significantly inhibited D. magna growth
- LOEC (lowest observed effect concentration, reproduction inhibition) (Daphnia magna; 21 days, p-value <0.05 vs controls): 9.8 μg L^–1
- %offspring mortality (Daphnia magna; BCRB 3.99 µg/L, 21 days): 3.29%
- % inhibition, avr. (Daphnia magna; BCRB 3.99 µg/L, 21 days): 0.7%
- #average live offspring (Daphnia magna; BCRB 3.99 µg/L, 21 days, per mother): 83
- #total live offspring (Daphnia magna; BCRB 3.99 µg/L, 21 days, sum of all vessels): 499
- %offspring mortality (Daphnia magna; BCRB 9.55 µg/L, 21 days): 4.04%
- % inhibition, avr. (Daphnia magna; BCRB 9.55 µg/L, 21 days): 15.0%
- #average live offspring (Daphnia magna; BCRB 9.55 µg/L, 21 days, per mother): 71
- % inhibition (of reproduction, per vessel) (Daphnia magna; BCRB 9.55 µg/L, 21 days, single vessels 1-6): 6.9%
- #total live offspring (Daphnia magna; BCRB 9.55 µg/L, 21 days, sum of all vessels): 427
- %offspring mortality (Daphnia magna; BCRB 21.94 µg/L, 21 days): 2.91%
- % inhibition, avr. (Daphnia magna; BCRB 21.94 µg/L, 21 days): 20.4%
- #average live offspring (Daphnia magna; BCRB 21.94 µg/L, 21 days, per mother): 67
- #total live offspring (Daphnia magna; BCRB 21.94 µg/L, 21 days, sum of all vessels): 400
- %offspring mortality (Daphnia magna; BCRB 43.46 µg/L, 21 days): 5.62%
- % inhibition, avr. (Daphnia magna; BCRB 43.46 µg/L, 21 days): 39.8%
- #average live offspring (Daphnia magna; BCRB 43.46 µg/L, 21 days, per mother): 50
- % inhibition (of reproduction, per vessel) (Daphnia magna; BCRB 43.46 µg/L, 21 days, single vessels 2-6): 39.1% and 54.6% and 28.4% and 37.9%
- #total live offspring (Daphnia magna; BCRB 43.46 µg/L, 21 days, sum of all vessels): 252
- Survival of the mother animal (Daphnia magna; BCRB 43.46 µg/L, vessel 1, day 5): dead
- Total #offspring per mother (live, per vessel) (Daphnia magna; BCRB avr. medium concentration 3.99 µg/L (methanol for dosing 0.063 g/L), 21 days, single vessels 1-6): 104 and 86 and 87 and 79 and 68 and 75
- Total #offspring per mother (live, per vessel) (Daphnia magna; BCRB avr. medium concentration 9.55 µg/L (methanol for dosing 0.125 g/L), 21 days, single vessels 1-6): 68 and 63 and 78 and 79 and 61
- Total #offspring per mother (live, per vessel) (Daphnia magna; BCRB avr. medium concentration 21.94 µg/L (methanol for dosing 0.25 g/L), 21 days, single vessels 1-6): 67 and 73 and 77 and 64 and 63 and 56
- Total #offspring per mother (live, per vessel) (Daphnia magna; BCRB avr. medium concentration 43.46 µg/L (methanol for dosing 0.5 g/L), 21 days, single vessels 2-6): 51 and 38 and 60 and 52
- EA50 (effective chemical activity) (Daphnia magna; EC50/subcooled liquid solubility, eq 1): 0.004 unitless
- %offspring mortality (Daphnia magna; [2]): 32.43%
- #total live offspring (Daphnia magna; Test 5-BCRB, avr. medium concentration 68.16 µg/L, 21 days, all vessels): 75
- % inhibition, avr. (Daphnia magna; [2]): 82.1%
- % inhibition (of reproduction, per replicate vessel) (Daphnia magna; [3]): 82.1% and 86.9% and 83.3% and 74.9%
- Total #dead offspring per mother (per replicate vessel) (Daphnia magna; [3]): 9 and 2 and 8
- #average live offspring (Daphnia magna; Test 5-BCRB, avr. medium concentration 68.16 µg/L, 21 days, per surviving mother): 15
- Total #offspring per mother (per replicate vessel) (Daphnia magna; Test 5-BCRB, avr. medium concentration 68.16 µg/L, methanol dosing conc. 1 g/L, 21 days, one value per vessel): 15 and 11 and 14 and 21
- Mother survival (parent mortality) (Daphnia magna; Test 5-BCRB, avr. medium concentration 68.16 µg/L, vessel 3, day 5): dead
- CTLBB (critical target lipid body burden) (Daphnia magna; derived from chronic EC10 using eq 3): 12.6 μmol g^-1 octanol
- wet weight of parent daphnids, change relative to control (Daphnia magna; 4.1 µg/L (Fig. S9)): +17%
- wet weight of parent daphnids, change relative to control (Daphnia magna; 9.8 µg/L (Fig. S9)): -14%
- wet weight of parent daphnids, change relative to control (Daphnia magna; 21.8 µg/L (Fig. S9)): -15%
- wet weight of parent daphnids, change relative to control (Daphnia magna; 44.6 µg/L (Fig. S9)): -34%
- wet weight of parent daphnids, change relative to control (Daphnia magna; 68.2 µg/L (Fig. S9)): -77%
- swimming behavior (Daphnia magna; two highest exposure concentrations, 22 and 68 μg L^–1): induced locomotor changes
